Laboratory results reported in patent US6566389B1, “Therapeutic uses of melatonin” (Neurim Pharmaceuticals (1991) Ltd., priority 1999, dated 2003).
Marks after values point to notes of the source that are not given here.

Experiments:
[1] = tested on: patients with tardive dyskinesia on long-term neuroleptic treatment; experiment: Randomized, double blind, crossover trial of melatonin on tardive dyskinesia severity, Abnormal Involuntary Movements Scale (AIMS); type: in vivo, human
Procedure: The effect of melatonin on tardive dyskinesis was determined on a trial population of 22 patients, of whom 6 were schizoaffective and 16 were paranoid schizophrenics. All patients, who had been receiving long-term neuroleptic treatment, were diagnosed according to DSM IV. They consisted of 11 men and 11 women, age 39±15 years, age range 17-61 years, of whom 19 completed the trial and are included in the results. In a randomized, double blind, crossover manner, subjects were given daily either 2×5 mg melatonin in a controlled-release formulation (Circadin™, Neurim Pharmaceuticals, Israel), two hours before bedtime, or a placebo of identical appearance, for a period of six weeks, with a four week placebo wash-out between two treatment periods. […] During the last week of each treatment period, TD severity was assessed using the Abnormal Involuntary Movements Scale (AIMS) and comparisons were made between placebo or melatonin treatments, and baseline.

[2] = tested on: pinealectomized rats treated with haloperidol; details: 4 mg, i.p., within one hour; cited from earlier work

Question: With `COc1ccc2[nH]cc(CCNC(C)=O)c2c1` [melatonin] as the molecule, how does the “T-test (t21), AIMS sub-scale 5” value ([1]; arms, hands, baseline/administration difference, placebo vs. melatonin) read?
Answer: −1.78

Question: And the “p of T-test, AIMS sub-scale 5” value ([1]; arms, hands, placebo vs. melatonin)?
Answer: 0.09

Question: What about the “decrease, ie. improvement (AIMS), after administration” value ([1]; change from baseline after melatonin, placebo −1±1.3) of the same molecule?
Answer: −3±2.1

Question: What about the “T-test (t21), AIMS sub-scale 1” value ([1]; facial and oral movements, baseline/administration difference, placebo vs. melatonin) of the same molecule?
Answer: −1

Question: And the “p of T-test, AIMS sub-scale 1” value ([1]; facial and oral movements, placebo vs. melatonin)?
Answer: 0.33

Question: What about the “p (MANOVA) of decrease after melatonin compared with placebo” value ([1]; highly significant) of the same molecule?
Answer: < 0.0001

Question: And the “T-test (t21), AIMS sub-scale 9” value ([1]; implication due to abnormal movements, baseline/administration difference, placebo vs. melatonin)?
Answer: −1.14

Question: What about the “p of T-test, AIMS sub-scale 9” value ([1]; implication due to abnormal movements, placebo vs. melatonin) of the same molecule?
Answer: 0.27

Question: What about the “T-test (t21), AIMS sub-scale 3” value ([1]; jaw, baseline/administration difference, placebo vs. melatonin) of the same molecule?
Answer: −1.14

Question: What about the “p of T-test, AIMS sub-scale 3” value ([1]; jaw, placebo vs. melatonin) of the same molecule?
Answer: 0.27

Question: What about the “T-test (t21), AIMS sub-scale 6” value ([1]; legs, knees, baseline/administration difference, placebo vs. melatonin) of the same molecule?
Answer: −2.81

Question: And the “p of T-test, AIMS sub-scale 6” value ([1]; legs, knees, placebo vs. melatonin, significant outcome)?
Answer: 0.01*

Question: And the “T-test (t21), AIMS sub-scale 2” value ([1]; lips and perioral area, baseline/administration difference, placebo vs. melatonin)?
Answer: −3.92

Question: What about the “p of T-test, AIMS sub-scale 2” value ([1]; lips and perioral area, placebo vs. melatonin, significant outcome) of the same molecule?
Answer: <0.001*

Question: What about the “T-test (t21), AIMS sub-scale 7” value ([1]; neck, shoulder, baseline/administration difference, placebo vs. melatonin) of the same molecule?
Answer: −2.49

Question: What about the “p of T-test, AIMS sub-scale 7” value ([1]; neck, shoulder, placebo vs. melatonin, significant outcome) of the same molecule?
Answer: 0.02*

Question: What about the “T-test (t21), AIMS sub-scale 10” value ([1]; patient's awareness, baseline/administration difference, placebo vs. melatonin) of the same molecule?
Answer: delta = 0

Question: What about the “T-test (t21), AIMS sub-scale 11” value ([1]; problem with teeth, baseline/administration difference, placebo vs. melatonin) of the same molecule?
Answer: delta = 0

Question: And the “T-test (t21), AIMS sub-scale 8” value ([1]; severity of abnormal movements, baseline/administration difference, placebo vs. melatonin)?
Answer: −1.82

Question: And the “p of T-test, AIMS sub-scale 8” value ([1]; severity of abnormal movements, placebo vs. melatonin)?
Answer: 0.08

Question: What about the “T-test (t21), AIMS sub-scale 4” value ([1]; tongue, baseline/administration difference, placebo vs. melatonin) of the same molecule?
Answer: −0.81

Question: And the “p of T-test, AIMS sub-scale 4” value ([1]; tongue, placebo vs. melatonin)?
Answer: 0.43

Question: And the “severity of movements after melatonin” value [2]?
Answer: non-significant reduction of the severity of movements
